From US20090247634A1, “Methods for identifying modulators of eoxin formation” (priority 2006, published 2009)
Several values for one entry are separate records, joined by “and”; a condition that tells them apart may be missing. Equal values may be shown once. Values belong to the molecule of their own block, whether it stands above or below them.

What was measured:
[1] = system: Hodgkin cell line L1236; assay: Inhibition of EoxC4 formation in the human cell line L1236; format: cell-based
Experimental: […] After pre-incubation with the test substance for 5 minutes, arachidonic acid (40 μM) was added. Incubation was stopped after 2 minutes with addition of one volume of methanol. Each test substance concentration was incubated in duplicate.
Cells and cell debris were removed by centrifugation (2600 rpm, 6 min) from the samples. The supernatant was diluted with water and then transferred to a washed and equilibrated extraction cartridge, Oasis HLB 1 cc 10 mg (Waters, Sweden). The metabolites were eluted with methanol and diluted with water before injected to the HPLC system.
RP-HPLC was performed on a Nova Pak C18 column (2.1×150 mm, Waters AB, Sweden). The initial mobile phase consists of 100% A (0.05% (8.7 mM) acetic acid, with pH adjusted to 5.6 with ammonium) at a flow rate at 0.4 mL/min. A linear gradient was started after five minutes to 36% B (60:40 acetonitrile:methanol) at 20 minutes. The mobile phase was than held isocratic at 64:36, A:B for another 20 minutes. Column effluent was monitored using diode array detection (PDA 996, Waters AB, Sweden) and UV spectra were acquired between 200-340 nm.
[…] Incubation and extraction was performed as described above.

[2] = system: eosinophils; assay: Oxidative metabolism of eosinophils, lucigenin-enhanced chemiluminescence; format: cell-based, human
Experimental: (§1) Neutrophil and eosinophil granulocytes were purified from peripheral whole blood using a Percoll gradient and the magnetic cell separation system (MACS).
(§2) Granulocytes were primed for 30 minutes at 37° C. with either IL-5 (10.5 ng/mL) or GM-CSF (10.5 ng/mL) and subsequently stimulated with IL-5 (100 ng/mL), GM-CSF (100 ng/mL), LTB4 (10^−7M) or Eoxin (10^−8-10^−6M). Oxidative metabolism was measured by a lucigenin-enhanced chemiluminescence (CL) assay.

[3] = system: confluent bovine endothelium cells; assay: Endothelial cell barrier function (TEER), Example 6a; format: cell-based; conditions: for plasma leakage / change in TEER: 10^−7 and 10^−8 M; for potency relative to the most potent 5-lipoxygenase derived leukotrienes: FIG. 22
Experimental: Bovine aorta endothelial cells (BAEC) and human umbilical vein endothelial cells (HUVEC) were isolated and cultured with calf serum or human serum. BAEC or HUVEC in the first to fifth passages were detached by brief (2 min) trypsin-EDTA treatment (0.25% trypsin/0.01% EDTA) and replated onto 3.0 μm pore size polycarbonate filters (Tissue Culture inserts, 10 mm; NUNC, Roskilde, Denmark) or, for the purpose of visual inspection, 0.2 μm pore size Anopore inorganic membrane (transparent when wet). In order to promote cellular differentiation and enhance attachment of EC, the filters were pretreated with 50 μl Biomatrix 1 (167 μg/ml) and air-dried. EC were seeded at a density of 2×10^5 cells per filter and incubated in culture medium at 37° C. in a humidified atmosphere of 5% CO2 in air. The EC were grown to confluent monolayers, as assessed by daily microscopic observation, in transparent 0.2 μm pore size filters and measurement of the electrical resistance across the monolayer. Under these experimental conditions maximal resistance is obtained at day 7 postseeding, at which day the EC monolayers were then used in the experiments.
Rapid changes in endothelial cell (EC) barrier function in response to various arachidonic acid metabolites were analysed through continuous registration of transendothelial electrical resistance (TEER) with electrodes on each side of EC monolayer^18. For measurement of TEER, the filter insert with ECs was transferred to a resistance measurement chamber (Endohm-12, World Precision Instruments, Sarasota, Fla., USA) modified so as to assure exact positioning of the electrodes in relation to each other and to the filter insert daring repeated measurements. The chamber (low compartment) and the filter insert (upper compartment) were filled with 2 ml and 400 μl culture medium, respectively. All measurements were made at 37° C. with the equipment placed in a cell culture incubator. Direct readings of the electrical resistance were given by an ohmmeter (Evom, World Precision Instruments, Sarasota, Fla., US) connected to the electrodes of the resistance chamber. The electrical resistance of individual EC monolayers was obtained by subtracting the resistance of the corresponding naked filter coated with Biomatrix as measured prior to seeding of the EC. Thus, TEER values represent the resistance of the EC monolayer solely and depend on the development of tight junctions between adjoining endothelial cells.

[4] = system: neutrophils; assay: Oxidative metabolism of neutrophils, lucigenin-enhanced chemiluminescence; format: cell-based, human
Experimental: as §1, §2

[5] = Non-enzymatic metabolism during incubation at 37° C.; format: physicochemical; conditions: 60 min incubation at 37° C.
Experimental: In order to analyze if eosinophils can metabolize 14,15-LTC4 to 14,15-LTD4 and 14,15-LTE4, eosinophils were incubated with synthetic 14,15-LTC4 or 14 (R)-cysteinyl-glycyl-15(S)-hydroxy-5,8,10,12(Z,Z,E,E)-eicosatetraenoic acid (14,15-LTD4) for 60 min at 37° C. The metabolites formed were analyzed with product ion scan at 497.2 m/z for 14,15-LTD4 and 440.2 m/z for 14,15-LTE4. The retention time and mass spectrum of a product formed (Metabolite 2) from 14,15-LTC4 were identical to synthetic 14,15-LTD4 (FIG. 30B), and a product formed (Metabolite 3) after incubation with 14,15-LTD4 had identical retention time and mass spectrum as synthetic 14 (R)-cysteinyl-15(S)-hydroxy-5,8,10,12(Z,Z,E,E)-eicosatetraenoic (14,15-LTE4) (FIG. 30C). […] (data not shown). Basically, the product ion mass spectra of 14,15-leukotrienes and corresponding 5-lipoxygenase derived cysteinyl-leukotrienes are almost identical. However, 14,15-leukotrienes form a fragment at 205 m/z, whereas the corresponding fragment in 5-lipoxygenase derived cysteinyl-leukotrienes is at 189 m/z (FIG. 31). These collision induced dissociation products are probably formed by a cleavage next to the carbon where the cysteinyl group is positioned, which is at carbon 14 for 14,15-leukotrienes and carbon 6 for leukotrienes.

[6] = system: eosinophils; assay: Biosynthesis of 14,15-LTC4 and LTC4 in eosinophils (RP-HPLC); format: cell-based, human; conditions: ionophore A23187 (1 μM), 5 min, 37° C.; one line per donor 1-11
Experimental: (§3) Human eosinophils contain abundant amounts of both 15-lipoxygenase and 5-lipoxygenase. […] The cells were incubated for five minutes at 37° C. and the amounts of 14,15-LTC4 and LTC4 were analyzed with RP-HPLC. […] Therefore, measurement of these metabolites is considered to reflect the total formation of 15-lipoxygenase derived cysteinyl-containing 14,15-leukotrienes and 5-lipoxygenase derived cysteinyl-containing leukotriens, respectively.
(§4) Isolated eosinophils (1-20×10^6/sample) were resuspended in phosphate buffered saline (1 ml/sample) and pre-incubated for 2 minutes in 37° C. (in presence or absence of indomethacin, 1 μM) prior to stimulation with ionophore A23187 (1 μM)/arachidonic acid (1 or 10 μM)/A23187 plus arachidonic acid/PGD2 (1 μM)/LTC4 (1 μM)/IL-5 (10 ng/ml)/14,15-LTC4 (10 μM) or 14,15-LTD4 (10 μM) for indicated time periods at 37° C. The incubations were terminated by addition of one volume of methanol (for analysis by RP-HPLC). For subsequent analysis by enzyme immunoassay (EIA), reactions were terminated by rapid cool off, 0° C., before centrifugation at 1200×g, 5 min. Supernatants were transferred to cryo tubes and stored in −70° C. until analyzed.
In order to get rid of cellular debris and proteins, centrifugation at 1200×g for 5 min. was performed. Supernatants were evaporated under reduced pressure and the residues resolved in methanol and transferred to a test tube. Samples were thereafter evaporated to dryness under a stream of nitrogen, and finally resuspended in 200 μl mobile phase (acetonitril:methanol:H20:acetic acid, 29:19:72:0.8, pH adjusted to 5.6 with NH3 for analysis of leukotrienes and 14,15-leukotrienes, and methanol:water:trifluoroacetic acid 70:30:0.007 for analysis of monohydroxy acids). The extracted samples were subjected to analysis in a reverse phase HPLC system as described. Briefly, samples were applied to a octadecyl reverse phase column (Chromabond ^18C, Macherey-Nagel, Duren, Germany) and elution rate was 1.2 ml/minute.

[7] = system: eosinophils; assay: Receptor mediated activation of 14,15-LTC4 biosynthesis in eosinophils (EIA); format: cell-based, human; conditions: LTC4 (1 μM), PGD2 (1 μM) or IL-5 (10 ng/ml), 5 min, 37° C.
Experimental: A possible receptor mediated activation of 14,15-LTC4 formation was investigated by using the allergen induced mast cell mediators LTC4 and prostaglandin (PG) D2 as well as IL-5, which is a potent eosinophil activator. Isolated eosinophils (10×10^6/sample) were incubated for 5 min, at 37° C. with LTC4 (1 μM), PGD2 (1 μM) or IL-5 (10 ng/ml). Leukotriene C4, PGD2 and IL-5 all induced release of 14,15-LTC4 from eosinophils after 5 min of incubation (table 2).
as §4
Supernatants were diluted in EIA buffer and analyses were performed according to the manufacturer's protocol. The optical density (OD) from the EIA determinations was used to calculate % B/B0 according to the relationship: […]

[8] = system: eosinophils; assay: Inhibitor studies on formation of Eoxin C4 and LTC4 in eosinophils; format: cell-based, human; conditions: 2 min preincubation, A23187 (1 μM) and arachidonic acid, 5 min, 37° C.
Experimental: Isolated eosinophils (5-10×10^6/sample) were resuspended in phosphate buffered saline (1 ml/sample) and preincubated for 2 minutes in 37° C. prior to stimulation with Eox A4 (10 μM), LTA4 (10 μM) or both for 5 minutes in 37° C. Alternatively, for inhibitor studies, eosinophils were preincubated for 2 minutes in 37° C. in presence of BW70C (1 μM) or MK886 (10 μM) prior to stimulation with ionophore A23187 (1 μM) and arachidonic acid (40 μM) for 5 minutes in 37° C. The reactions were terminated by addition of three volumes of methanol. Metabolites were detected and quantified utilising Waters 996 photodiode array spectrophotometer connected to Waters 1996 HPLC system.

[9] = system: eosinophils; assay: Metabolism in eosinophils after 5 min of incubation
Experimental: as §3

Molecule: CCCCCC#CCC#CCC#CCC#CCCCC(=O)O [ETYA, Eicosatetraynoic acid]
formation of EoxC4 ([1]; ETYA 10^−4-4 M, FIG. 26): completely blocked
formation of EoxD4 ([1]; ETYA 10^−4-4 M, FIG. 26): completely blocked
formation of EoxC4 ([1]; ETYA 10^−5-5 M): decreased
formation of EoxD4 ([1]; ETYA 10^−5-5 M): decreased

Molecule: CCCCC[C@H](O)[C@@H](/C=C/C=C/C=C\C/C=C\CCCC(=O)O)SC[C@H](N)C(=O)O [EoxE4, 14 (R)-cysteinyl-15 (S)-hydroxy-5,8,10,12 (Z,Z,E,E)-eicosatetraenoic acid]
radical production by IL-5 primed eosinophils ([2]; IL-5 (10.5 ng/mL) primed, Eoxin 10^−8-10^−6M): broad dose-related induction of the radical production
responders ([2]; IL-5 primed eosinophils): 3 of 6 subjects
plasma leakage / change in TEER [3]: induce significant plasma leakage
potency relative to the most potent 5-lipoxygenase derived leukotrienes [3]: about five to ten times less potent

non-enzymatic metabolism [5]: no non-enzymatic metabolism
Molecule: CCCCC[C@H](O)[C@@H](/C=C/C=C/C=C\C/C=C\CCCC(=O)O)SC[C@H](N)C(=O)NCC(=O)O [EoxD4, 14 (R)-cysteinyl-glycyl-15 (S)-hydroxy-5,8,10,12 (Z,Z,E,E)-eicosatetraenoic acid]
radical production by GM-CSF primed neutrophils ([4]; GM-CSF (10.5 ng/mL) primed, Eoxin 10^−8-10^−6M): induced the radical production by primed cells in a dose-dependent manner
responders ([4]; GM-CSF primed neutrophils): 7-10 subjects of 13
plasma leakage / change in TEER [3]: induce significant plasma leakage
potency relative to the most potent 5-lipoxygenase derived leukotrienes [3]: about five to ten times less potent

Molecule: CNc1ccc2oc(C[C@H]3O[C@@]4(CC[C@H]3C)O[C@H]([C@H](C)C(=O)c3ccc[nH]3)[C@H](C)C[C@H]4C)nc2c1C(=O)O [Compound A23187]
14,15-LTC4 [6]: 0 pmol/10^7
LTC4 [6]: 198 pmol/10^7 and 494 pmol/10^7 and 82 pmol/10^7 and 108 pmol/10^7 and 64 pmol/10^7 and 326 pmol/10^7 and 170 pmol/10^7 and 30 pmol/10^7 and 264 pmol/10^7 and 50 pmol/10^7 and 40 pmol/10^7

14,15-LTC4 [7]: 131 ± 4.9 pg/10^7 cell
Molecule: IL-5: IL-5, which is a potent eosinophil activator

Molecule: CC(/C=C/c1cccc(Oc2ccc(F)cc2)c1)N(O)C(N)=O (stereo not shown) [BW70C]
LTC4 peak (LTC4 formation) ([8]; BW70C 1 μM): totally abolished

14,15-LTC4 [7]: 43.8 ± 16.9 pg/10^7 cell
Molecule: CCCCC[C@H](O)/C=C/[C@H]1C(=O)C[C@H](O)[C@@H]1C/C=C\CCCC(=O)O [PGD2, prostaglandin D2]

Molecule: CC(C)c1ccc2c(c1)c(SC(C)(C)C)c(CC(C)(C)C(=O)O)n2Cc1ccc(Cl)cc1 [MK886]
EoxC4 synthesis ([8]; MK886 10 μM): blocked

Molecule: GM-CSF: the cytokine GM-CSF, a known activator of the oxidative metabolism
oxygen free radical production by non-primed neutrophils ([4]; non-primed blood neutrophils, GM-CSF 100 ng/mL, LTB4 10^−7M, Eoxin 10^−8-10^−6M): induced the oxygen free radical production

14,15-LTC4 [7]: 56.2 ± 42.5 pg/10^7 cell
metabolism in eosinophils [9]: almost no metabolism
Molecule: CCCCC/C=C\C\C=C/C=C/C=C/[C@@H](SC[C@H](NC(=O)CC[C@H](N)C(=O)O)C(=O)NCC(=O)O)[C@@H](O)CCCC(=O)O [LTC4, leukotriene C4]
